Here are results for two molecules from US20030040486A1 (priority 2001, published 2003).

Experiment [1] concerns male Sprague-Dawley rats. Put plainly: Development of tolerance in the rat HWL study (thermal and mechanical stimulation). It is filed as in vivo. As to conditions: for time to complete tolerance: intrathecal every 12 hrs, both hindpaws, thermal and mechanical HWL.
Experiment [2] concerns male Sprague-Dawley rats. The experiment in a line: Rat hindpaw withdrawal latency (HWL) to thermal stimulation, hot-plate test. It is filed as in vivo. As to conditions: for HWL increase using thermal stimulation: drug alone, intrathecal, FIGS. 2A and 2B; for % Changes of HWL to Thermal Stimulation: intrathecal every 12 hrs: morphine 8 μg, nociceptin 10 nmol, or rotated every two days. For orientation: Hot-plate and tail-flick tests time the reaction to a heat stimulus.

The test system of experiment [3] is male Sprague-Dawley rats. The experiment in a line: Rat hindpaw withdrawal latency (HWL) to mechanical stimulation, Randall Selitto Test. It is filed as in vivo. As to conditions: for HWL increase using mechanical stimulation: drug alone, intrathecal, FIGS. 2C and 2D; for % Changes of HWL to Mechanical Stimulation: intrathecal every 12 hrs: morphine 8 μg, nociceptin 10 nmol, or rotated every two days.

The conditions of experiment [4]: intrathecal administration; Jhamandas et al. 1998; cited from earlier work.
A further experiment concerns μ-opioid receptors. As to conditions: Hao et al. 1997; cited from earlier work.

In the case of `CN1CC[C@]23c4c5ccc(O)c4O[C@H]2[C@@H](O)C=C[C@H]3[C@H]1C5` [Morphine, morphine], the “time to complete tolerance” value with male Sprague-Dawley rats [1] is 6 days. The “HWL increase using thermal stimulation” value in the experiment with male Sprague-Dawley rats [2] (day 1) was “approximately 67%”. Further, in the experiment with male Sprague-Dawley rats [3] (day 1), the “HWL increase using mechanical stimulation” value is given as around 55%.
In the experiment with male Sprague-Dawley rats [1] (by day 2, nociceptin alone group), `CC(C)C[C@H](NC(=O)[C@H](CCCCN)NC(=O)[C@H](CCCN=C(N)N)NC(=O)[C@H](C)NC(=O)[C@H](CO)NC(=O)[C@H](CCCCN)NC(=O)[C@H](CCCN=C(N)N)NC(=O)[C@H](C)NC(=O)CNC(=O)[C@@H](NC(=O)[C@H](Cc1ccccc1)NC(=O)CNC(=O)CNC(=O)[C@@H](N)Cc1ccccc1)[C@@H](C)O)C(=O)N[C@@H](C)C(=O)N[C@@H](CC(N)=O)C(=O)N[C@@H](CCC(N)=O)C(=O)O` [Nociceptin, nociceptin] showed a tolerance developed of 50%. Besides, in the experiment with male Sprague-Dawley rats [1], the “time to complete tolerance” value was 4 days. In the experiment with male Sprague-Dawley rats [2] (day 1), the “HWL increase using thermal stimulation” value is reported as “approximately 90%”. The “% Changes of HWL to Thermal Stimulation” value in the experiment with male Sprague-Dawley rats [2] (day 1, left hindpaw) was 93.49 ± 3.77%; with male Sprague-Dawley rats [2] (day 1, right hindpaw), 90.42 ± 2.65%; in the experiment with male Sprague-Dawley rats [2] (day 2, left hindpaw), 39.91 ± 3.66%; in the experiment with male Sprague-Dawley rats [2] (day 2, right hindpaw), 43.02 ± 2.12%; with male Sprague-Dawley rats [2] (day 3, left hindpaw) it was 9.46 ± 2.31%; in the experiment on male Sprague-Dawley rats [2] (day 3, right hindpaw), 12.01 ± 1.48%. Moreover, the “% Changes of HWL to Thermal Stimulation” value is on record as −2.18 ± 2.07% in the experiment on male Sprague-Dawley rats [2] (day 4, left hindpaw) and −3.67 ± 1.61% in the experiment with male Sprague-Dawley rats [2] (day 4, right hindpaw). Also, in the experiment on male Sprague-Dawley rats [3] (day 1), the “HWL increase using mechanical stimulation” value was 60-70%. The “% Changes of HWL to Mechanical Stimulation” value is on record as 69.90 ± 4.11% in the experiment with male Sprague-Dawley rats [3] (day 1, left hindpaw); 61.26 ± 3.85% in the experiment with male Sprague-Dawley rats [3] (day 1, right hindpaw); 31.28 ± 5.03% in the experiment on male Sprague-Dawley rats [3] (day 2, left hindpaw); 30.79 ± 6.58% in the experiment on male Sprague-Dawley rats [3] (day 2, right hindpaw); 10.59 ± 0.93% in the experiment on male Sprague-Dawley rats [3] (day 3, left hindpaw); 10.08 ± 1.05% with male Sprague-Dawley rats [3] (day 3, right hindpaw). The “% Changes of HWL to Mechanical Stimulation” value in the experiment with male Sprague-Dawley rats [3] (day 4, left hindpaw) is on record as −0.62 ± 1.45%; with male Sprague-Dawley rats [3] (day 4, right hindpaw) it was −0.76 ± 2.32%. Also, in experiment [4], the “duration of the antinociceptive response evoked by intrathecal deltorphin” value is listed as “increase the duration”. The “binding to μ-opioid receptors” value in the experiment on μ-opioid receptors is “does not bind”.
